From US9181238B2, “N-(pyridin-2-yl)sulfonamides and compositions thereof as protein kinase inhibitors” (NOVARTIS AG, priority 2010, dated 2015)

Tested on: A375-luc cells
Experiment: A375 Cellular Proliferation Assay
Format: cell-based
Conditions: Homo sapiens, A-375, 48 h; A375-luc melanoma cells (B-Raf V600E), 2 days incubation, BrightGlo luminescence; read-out: A375 CP IC50
Method: A375 Cellular Proliferation Assay
A375 is a melanoma cell line that harbors the B-Raf V600E mutation. A375-luc cells engineered to express luciferase are plated to 384-well white clear bottom plates as 1,500 cells/50 μl/well in DMEM containing 10% FBS. Compounds of the invention dissolved in 100% DMSO at appropriate concentrations are transferred to the cells by a robotic Pin Tool (100 nl). The cells are incubated for 2 days at […], then 25 μl of BrightGlo™ is added to each well and the plates are read by luminescence. The concentration of each compound for 50% inhibition (IC50) was calculated by non-linear regression using XL Fit data analysis software.

IC50 [nM] | Compound
12 | CCCS(=O)(=O)Nc1ncc(F)c(-c2cc3cnc(NCCC#N)cc3n(C)c2=O)c1F [Compound 15, N-(4-(7-(2-cyanoethylamino)-1-methyl-2-oxo-1,2-dihydro-1,6-naphthyridin-3-yl)-3,5-difluoropyridin-2-yl)propane-1-sulfonamide]
12 | CCCS(=O)(=O)Nc1ncc(F)c(Nc2nccnc2-c2cc(NCC(F)F)ncn2)c1F [Compound 4, N-(4-(3-(6-(2,2-difluoroethylamino)pyrimidin-4-yl)pyrazin-2-ylamino)-3,5-difluoropyridin-2-yl)propane-1-sulfonamide]
13 | CCCS(=O)(=O)Nc1ncc(F)c(Nc2nccnc2-c2cc(NCC)ncn2)c1F [Compound 1, N-(4-(3-(6-(Ethylamino)pyrimidin-4-yl)pyrazin-2-ylamino)-3,5-difluoropyridin-2-yl)propane-1-sulfonamide]
229 | CCCS(=O)(=O)Nc1nccc(-c2cc3cnc(NC)nc3n(C)c2=O)c1F [Compound 11, N-(3-fluoro-4-(8-methyl-2-(methylamino)-7-oxo-7,8-dihydropyrido[2,3-d]pyrimidin-6-yl)pyridin-2-yl)propane-1-sulfonamide]
14 | CCCS(=O)(=O)Nc1ncc(F)c(-c2cc3cnc(NC[C@H](C)NC(=O)OC)nc3n(C)c2=O)c1F [Compound 12, (S)-methyl 1-(6-(3,5-difluoro-2-(propylsulfonamido)pyridin-4-yl)-8-methyl-7-oxo-7,8-dihydropyrido[2,3-d]pyrimidin-2-ylamino)propan-2-ylcarbamate]
21 | CCCS(=O)(=O)Nc1ncc(F)c(Nc2nccnc2-c2cc(NCCC(F)(F)F)ncn2)c1F [Compound 3, N-(3,5-difluoro-4-(3-(6-(3,3,3-trifluoropropylamino)pyrimidin-4-yl)pyrazin-2-ylamino)pyridin-2-yl)propane-1-sulfonamide]
31 | CCCS(=O)(=O)Nc1ncc(F)c(Nc2nccnc2-c2cc(NC)ncn2)c1F [Compound 5, N-(3,5-difluoro-4-(3-(6-(methylamino)pyrimidin-4-yl)pyrazin-2-ylamino)pyridin-2-yl)propane-1-sulfonamide]
3 | CCCS(=O)(=O)Nc1ncc(F)c(Nc2nccnc2-c2cc(NCCC#N)ncn2)c1F [Compound 2, N-(4-(3-(6-(2-cyanoethylamino)pyrimidin-4-yl)pyrazin-2-ylamino)-3,5-difluoropyridin-2-yl)propane-1-sulfonamide]
121 | CCCS(=O)(=O)Nc1ncc(F)c(Nc2nccnc2-c2cc(NCC)ncn2)c1Cl [Compound 6, N-(3-chloro-4-(3-(6-(ethylamino)pyrimidin-4-yl)pyrazin-2-ylamino)-5-fluoropyridin-2-yl)propane-1-sulfonamide]
56 | CCCS(=O)(=O)Nc1ncc(F)c(-c2cc3cnc(NC)nc3n(C)c2=O)c1F [Compound 10, N-(3,5-difluoro-4-(8-methyl-2-(methylamino)-7-oxo-7,8-dihydropyrido[2,3-d]pyrimidin-6-yl)pyridin-2-yl)propane-1-sulfonamide]
130 | CNc1ncc2cc(-c3c(F)cnc(NS(=O)(=O)CCC(F)(F)F)c3F)c(=O)n(C)c2n1 [Compound 14, N-(3,5-difluoro-4-(8-methyl-2-(methylamino)-7-oxo-7,8-dihydropyrido[2,3-d]pyrimidin-6-yl)pyridin-2-yl)-3,3,3-trifluoropropane-1-sulfonamide]
49 | CCCS(=O)(=O)Nc1ncc(F)c(Nc2nccnc2-c2cc(NCC(F)(F)F)ncn2)c1F [Compound 7, N-(3,5-difluoro-4-(3-(6-(2,2,2-trifluoroethylamino)pyrimidin-4-yl)pyrazin-2-ylamino)pyridin-2-yl)propane-1-sulfonamide]
191 | CCCS(=O)(=O)Nc1ncc(F)c(Nc2nccnc2-c2cc(NCCS(C)(=O)=O)ncn2)c1F [Compound 8, N-(3,5-difluoro-4-(3-(6-(2-(methylsulfonyl)ethylamino)pyrimidin-4-yl)pyrazin-2-ylamino)pyridin-2-yl)propane-1-sulfonamide]

Compound | IC50 [nM]
CCCS(=O)(=O)Nc1ncc(F)c(-c2cc3cnc(NCC)cc3n(C)c2=O)c1F [Compound 13, N-(4-(7-(Ethylamino)-1-methyl-2-oxo-1,2-dihydro-1,6-naphthyridin-3-yl)-3,5-difluoropyridin-2-yl)propane-1-sulfonamide] | 10
